What was measured:
Test in all cases: Postemergence glyphosate tolerance, visual injury
Type in all cases: in vivo, Arabidopsis thaliana
[1] = system: Arabidopsis transformed with TraP12 v2::dgt-14 (pDAB105528); conditions: for Visual % injury (Ave): 2 weeks after application
Description: (§1) Transgenic T1 Arabidopsis plants containing the dgt-14 transgene were sprayed with differing rates of glyphosate. A distribution of varying concentrations of glyphosate rates, including elevated rates, were applied in this study to determine the relative levels of resistance (105, 420, 1,680 or 3,360 g ae/ha). The typical 1× field usage rate of glyphosate is 1,120 g ae/ha. The T1 Arabidopsis plants that were used in this study were variable in copy number for the dgt-14 transgene. The low copy dgt-14 T1 Arabidopsis plants were identified using the molecular confirmation assays described above, and self-pollinated and used to produce T2 plants.
(§2) The Arabidopsis T1 transformants were first selected from the background of untransformed seed using a glufosinate selection scheme. Three flats or 30,000 seed were analyzed for each T1 construct. The T1 plants selected above were molecularly characterized and the plants were subsequently transplanted to individual pots and sprayed with various rates of commercial glyphosate as previously described. The dose response of these plants is presented in terms of % visual injury 2 weeks after treatment (WAT). […] An arithmetic mean and standard deviation is presented for each construct used for Arabidopsis transformation. The range in individual response is also indicated in the last column for each rate and transformation. Wildtype, non-transformed Arabidopsis (c.v. Columbia) served as a glyphosate sensitive control.
(§3) Selected T1 Arabidopsis plants which were identified to contain low-copy numbers of transgene insertions (1-3 copies) were self-fertilized to produce a second generation for additional assessment of glyphosate tolerance. […] In the T2 generation hemizygous and homozygous plants were available for testing for each event and therefore were included for each rate of glyphosate tested. Hemizygous plants contain two different alleles at a locus as compared to homozygous plants which contain the same two alleles at a locus. The copy number and ploidy levels of the T2 plants were confirmed using the molecular analysis protocols previously described. Likewise, glyphosate was applied using the methods and rates as previously described. The dose response of the plants is presented in terms of % visual injury 2 weeks after treatment (WAT). […] An arithmetic mean and standard deviation are presented for each construct used for Arabidopsis transformation. The range in individual response is also indicated in the last column for each rate and transformation. Wildtype, non-transformed Arabidopsis (cv. Columbia) served as a glyphosate sensitive control. In addition, plants comprising a glyphosate herbicide resistance gene, dgt-1 (as described in U.S. patent Ser. No. 12/558,351, incorporated herein by reference in its entirety) were included as a positive control.
(§4) Randomly selected T2 Arabidopsis plants which were identified to contain low-copy numbers of transgene insertions (1-3 copies) were self-fertilized to produce a third generation for additional assessment of glyphosate tolerance. Arabidopsis seed from the third generation (T3) were planted and evaluated for glyphosate tolerance using the same protocols as previously described. […] These Events were assayed via LC-MS-MS to confirm that the plants expressed the DGT-14 protein. […] Exemplary resistant T3 Events comprised dgt-14 linked with TraP8 v2 (pDAB105526), TraP9 v2 (pDAB105527), TraP12 v2 (pDAB105528) and TraP13 v2 (pDAB105529).

[2] = system: Arabidopsis transformed with TraP9 v2::dgt-14 (pDAB105527); conditions: for Visual % injury (Ave): 2 weeks after application
Description: as §1, §2, §3, §4

[3] = system: Arabidopsis transformed with TraP5 v2::dgt-14 (pDAB105525); conditions: 2 weeks after application
Description: as §1, §2, §3, §4

[4] = system: Non-transformed control Arabidopsis (cv. Columbia); conditions: 2 weeks after application
Description: as §1, §2, §3, §4

[5] = system: Arabidopsis transformed with TraP8 v2::dgt-14 (pDAB105526); conditions: for Visual % injury (Ave): 2 weeks after application
Description: as §1, §2, §3, §4

[6] = system: Arabidopsis transformed with TraP13 v2::dgt-14 (pDAB105529); conditions: for Visual % injury (Ave): 2 weeks after application
Description: as §1, §2, §3, §4

[7] = system: Arabidopsis transformed with TraP4 v5::dgt-14 (pDAB107526); conditions: 2 weeks after application
Description: as §1, §2, §3, §4

[8] = T2, all concentrations of glyphosate tested
[9] = T3, all concentrations of glyphosate tested

In the case of `O=C(O)CNCP(=O)(O)O` [glyphosate, N-(phosphonomethyl)glycine], the “Visual % injury (Ave)” value ([1]; T1, 105 g ae/ha) is reported as 6.0%, the “Visual % injury (Ave)” value ([1]; T1, 420 g ae/ha) is reported as 11.0% and the “Visual % injury (Ave)” value ([1]; T1, 1680 g ae/ha) is reported as 20.4%. The “Visual % injury (Ave)” value ([1]; T1, 3360 g ae/ha) was 19.0%, the “Visual % injury (Ave)” value ([1]; T2, 420 g ae/ha) was 1.8% and the “Visual % injury (Ave)” value ([1]; T2, 1680 g ae/ha) was 2.0%. For the same compound, the “Visual % injury (Ave)” value ([1]; T2, 3360 g ae/ha) was 3.8%, the injury range [1, 8] was “less than 20%” and the “Visual % injury (Ave)” value ([1]; T3, 420 g ae/ha) was 0.0%. The “Visual % injury (Ave)” value ([1]; T3, 1680 g ae/ha) was 2.5%, the “Visual % injury (Ave)” value ([1]; T3, 3360 g ae/ha) was 4.8% and the injury range [1, 9] was “less than 20%”. For the same compound, the “Visual % injury (Ave)” value ([2]; T1, 105 g ae/ha) was 23.0%, the “Visual % injury (Ave)” value ([2]; T1, 420 g ae/ha) was 37.5% and the “Visual % injury (Ave)” value ([2]; T1, 1680 g ae/ha) was 48.8%. For the same compound, the “Visual % injury (Ave)” value ([2]; T1, 3360 g ae/ha) was 63.8%, the “Visual % injury (Ave)” value ([2]; T2, 420 g ae/ha) was 0.0% and the “Visual % injury (Ave)” value ([2]; T2, 1680 g ae/ha) was 1.8%. For the same compound, the “Visual % injury (Ave)” value ([2]; T2, 3360 g ae/ha) was 17.5%, the injury range [2, 8] was “less than 20%” and the “Visual % injury (Ave)” value ([2]; T3, 420 g ae/ha) was 0.0%. The “Visual % injury (Ave)” value ([2]; T3, 1680 g ae/ha) was 0.0%, the “Visual % injury (Ave)” value ([2]; T3, 3360 g ae/ha) was 4.3% and the injury range [2, 9] was “less than 20%”. For the same compound, the “Visual % injury (Ave)” value ([3]; T1, 105 g ae/ha) was 93.0%, the “Visual % injury (Ave)” value ([3]; T1, 420 g ae/ha) was 98.6% and the “Visual % injury (Ave)” value ([3]; T1, 1680 g ae/ha) was 98.0%. The “Visual % injury (Ave)” value ([3]; T1, 3360 g ae/ha) was 96.0%, the “Visual % injury (Ave)” value ([3]; T2, 420 g ae/ha) was 86.3% and the “Visual % injury (Ave)” value ([3]; T2, 1680 g ae/ha) was 90.0%. The “Visual % injury (Ave)” value ([3]; T2, 3360 g ae/ha) was 97.0%, the “Visual % injury (Ave)” value ([3]; T3, 420 g ae/ha) was 93.3% and the “Visual % injury (Ave)” value ([3]; T3, 1680 g ae/ha) was 93.0%. For the same compound, the “Visual % injury (Ave)” value ([3]; T3, 3360 g ae/ha) was 91.7%, the “Visual % injury (Ave)” value ([4]; T1 study, 105 g ae/ha) was 100.0% and the “Visual % injury (Ave)” value ([4]; T1 study, 420 g ae/ha) was 100.0%. For the same compound, the “Visual % injury (Ave)” value ([4]; T1 study, 1680 g ae/ha) was 100.0%, the “Visual % injury (Ave)” value ([4]; T1 study, 3360 g ae/ha) was 100.0% and the “Visual % injury (Ave)” value ([4]; T2 study, 420 g ae/ha) was 100.0%. For the same compound, the “Visual % injury (Ave)” value ([4]; T2 study, 1680 g ae/ha) was 100.0%, the “Visual % injury (Ave)” value ([4]; T2 study, 3360 g ae/ha) was 100.0% and the “Visual % injury (Ave)” value ([4]; T3 study, 420 g ae/ha) was 100.0%. The “Visual % injury (Ave)” value ([4]; T3 study, 1680 g ae/ha) was 100.0%, the “Visual % injury (Ave)” value ([4]; T3 study, 3360 g ae/ha) was 100.0% and the “Visual % injury (Ave)” value ([5]; T1, 105 g ae/ha) was 40.0%. For the same compound, the “Visual % injury (Ave)” value ([5]; T1, 420 g ae/ha) was 23.8%, the “Visual % injury (Ave)” value ([5]; T1, 1680 g ae/ha) was 66.3% and the “Visual % injury (Ave)” value ([5]; T1, 3360 g ae/ha) was 26.5%. The “Visual % injury (Ave)” value ([5]; T2, 420 g ae/ha) was 0.5%, the “Visual % injury (Ave)” value ([5]; T2, 840 g ae/ha) was 0.0% and the “Visual % injury (Ave)” value ([5]; T2, 1680 g ae/ha) was 2.5%. For the same compound, the “Visual % injury (Ave)” value ([5]; T2, 3360 g ae/ha) was 5.0%, the injury range [5, 8] was “less than 20%” and the “Visual % injury (Ave)” value ([5]; T3, 420 g ae/ha) was 0.0%. The “Visual % injury (Ave)” value ([5]; T3, 840 g ae/ha) was 1.3%, the “Visual % injury (Ave)” value ([5]; T3, 1680 g ae/ha) was 0.0% and the “Visual % injury (Ave)” value ([5]; T3, 3360 g ae/ha) was 4.0%. For the same compound, the injury range [5, 9] was “less than 20%”, the “Visual % injury (Ave)” value ([6]; T1, 105 g ae/ha) was 34.5% and the “Visual % injury (Ave)” value ([6]; T1, 420 g ae/ha) was 21.3%. The “Visual % injury (Ave)” value ([6]; T1, 1680 g ae/ha) was 27.0%, the “Visual % injury (Ave)” value ([6]; T1, 3360 g ae/ha) was 32.8% and the “Visual % injury (Ave)” value ([6]; T2, 420 g ae/ha) was 0%. For the same compound, the “Visual % injury (Ave)” value ([6]; T2, 1680 g ae/ha) was 1.8%, the “Visual % injury (Ave)” value ([6]; T2, 3360 g ae/ha) was 3.8% and the injury range [6, 8] was “less than 20%”. For the same compound, the “Visual % injury (Ave)” value ([6]; T3, 420 g ae/ha) was 0.0%, the “Visual % injury (Ave)” value ([6]; T3, 1680 g ae/ha) was 0.0% and the “Visual % injury (Ave)” value ([6]; T3, 3360 g ae/ha) was 1.8%. For the same compound, the injury range [6, 9] was “less than 20%”, the “Visual % injury (Ave)” value ([7]; T1, 105 g ae/ha) was 85.8% and the “Visual % injury (Ave)” value ([7]; T1, 420 g ae/ha) was 91.0%. For the same compound, the “Visual % injury (Ave)” value ([7]; T1, 1680 g ae/ha) was 96.5%, the “Visual % injury (Ave)” value ([7]; T1, 3360 g ae/ha) was 95.8% and the “Visual % injury (Ave)” value ([7]; T2, 420 g ae/ha) was 85.0%. For the same compound, the “Visual % injury (Ave)” value ([7]; T2, 840 g ae/ha) was 87.5%, the “Visual % injury (Ave)” value ([7]; T2, 1680 g ae/ha) was 92.5% and the “Visual % injury (Ave)” value ([7]; T2, 3360 g ae/ha) was 95.0%.
